In general, IC50 refers to the concentration that gives 50% inhibition.

What all share (experiment): cell-based
For one test, the target named is rNav1.7 (Rattus norvegicus, UniProt O08562). To be noted: for rNav1.7/hNav1.7: ratio of PX tonic IC50, rat Nav1.7 over human Nav1.7.
Another test has as its target mNav1.7 (Mus musculus, UniProt Q62205). To be noted: for mNav1.7/hNav1.7: ratio of PX tonic IC50, mouse Nav1.7 over human Nav1.7; for IC50: PatchXpress, tonic block, mouse Nav1.7, read-out: PX mNav1.7 Tonic IC50.
The target of test [1] is T1, hNav1.7 (Homo sapiens, UniProt Q15858). The test is classed as cell-based. The following applies: read-out: PX hNav1.7 Tonic IC50.
The target of test [2] is T1, hNav1.7. To be noted: IonWorks Quattro; […]; read-out: IC50 (μM) Nav1.7.
The target in test [3] is T2, hNav1.5 (Homo sapiens, UniProt Q14524). The following applies: IonWorks Quattro; Table 9; read-out: IC50 (μM) Nav1.5.
Test [4] addresses T3, hNav1.4 (Homo sapiens, UniProt P35499). The class given is cell-based. To be noted: Table 9.
In the next test the target is hNav1.3 (Homo sapiens, UniProt Q9NY46). To be noted: IonWorks Quattro; Table 9; read-out: IC50 (μM) Nav1.3.
Test [5] concerns the target T2, hNav1.5.
Test [6] has as its target T3, hNav1.4. The class given is cell-based.
Setting [7] is: PatchXpress, tonic block, human Nav1.7.
The mark [8] stands for this setting: Table 13, ratio of PX tonic IC50 values.

Where two headings read alike, the source gives them in different places.

T1 sequence (Q15858 whole entry): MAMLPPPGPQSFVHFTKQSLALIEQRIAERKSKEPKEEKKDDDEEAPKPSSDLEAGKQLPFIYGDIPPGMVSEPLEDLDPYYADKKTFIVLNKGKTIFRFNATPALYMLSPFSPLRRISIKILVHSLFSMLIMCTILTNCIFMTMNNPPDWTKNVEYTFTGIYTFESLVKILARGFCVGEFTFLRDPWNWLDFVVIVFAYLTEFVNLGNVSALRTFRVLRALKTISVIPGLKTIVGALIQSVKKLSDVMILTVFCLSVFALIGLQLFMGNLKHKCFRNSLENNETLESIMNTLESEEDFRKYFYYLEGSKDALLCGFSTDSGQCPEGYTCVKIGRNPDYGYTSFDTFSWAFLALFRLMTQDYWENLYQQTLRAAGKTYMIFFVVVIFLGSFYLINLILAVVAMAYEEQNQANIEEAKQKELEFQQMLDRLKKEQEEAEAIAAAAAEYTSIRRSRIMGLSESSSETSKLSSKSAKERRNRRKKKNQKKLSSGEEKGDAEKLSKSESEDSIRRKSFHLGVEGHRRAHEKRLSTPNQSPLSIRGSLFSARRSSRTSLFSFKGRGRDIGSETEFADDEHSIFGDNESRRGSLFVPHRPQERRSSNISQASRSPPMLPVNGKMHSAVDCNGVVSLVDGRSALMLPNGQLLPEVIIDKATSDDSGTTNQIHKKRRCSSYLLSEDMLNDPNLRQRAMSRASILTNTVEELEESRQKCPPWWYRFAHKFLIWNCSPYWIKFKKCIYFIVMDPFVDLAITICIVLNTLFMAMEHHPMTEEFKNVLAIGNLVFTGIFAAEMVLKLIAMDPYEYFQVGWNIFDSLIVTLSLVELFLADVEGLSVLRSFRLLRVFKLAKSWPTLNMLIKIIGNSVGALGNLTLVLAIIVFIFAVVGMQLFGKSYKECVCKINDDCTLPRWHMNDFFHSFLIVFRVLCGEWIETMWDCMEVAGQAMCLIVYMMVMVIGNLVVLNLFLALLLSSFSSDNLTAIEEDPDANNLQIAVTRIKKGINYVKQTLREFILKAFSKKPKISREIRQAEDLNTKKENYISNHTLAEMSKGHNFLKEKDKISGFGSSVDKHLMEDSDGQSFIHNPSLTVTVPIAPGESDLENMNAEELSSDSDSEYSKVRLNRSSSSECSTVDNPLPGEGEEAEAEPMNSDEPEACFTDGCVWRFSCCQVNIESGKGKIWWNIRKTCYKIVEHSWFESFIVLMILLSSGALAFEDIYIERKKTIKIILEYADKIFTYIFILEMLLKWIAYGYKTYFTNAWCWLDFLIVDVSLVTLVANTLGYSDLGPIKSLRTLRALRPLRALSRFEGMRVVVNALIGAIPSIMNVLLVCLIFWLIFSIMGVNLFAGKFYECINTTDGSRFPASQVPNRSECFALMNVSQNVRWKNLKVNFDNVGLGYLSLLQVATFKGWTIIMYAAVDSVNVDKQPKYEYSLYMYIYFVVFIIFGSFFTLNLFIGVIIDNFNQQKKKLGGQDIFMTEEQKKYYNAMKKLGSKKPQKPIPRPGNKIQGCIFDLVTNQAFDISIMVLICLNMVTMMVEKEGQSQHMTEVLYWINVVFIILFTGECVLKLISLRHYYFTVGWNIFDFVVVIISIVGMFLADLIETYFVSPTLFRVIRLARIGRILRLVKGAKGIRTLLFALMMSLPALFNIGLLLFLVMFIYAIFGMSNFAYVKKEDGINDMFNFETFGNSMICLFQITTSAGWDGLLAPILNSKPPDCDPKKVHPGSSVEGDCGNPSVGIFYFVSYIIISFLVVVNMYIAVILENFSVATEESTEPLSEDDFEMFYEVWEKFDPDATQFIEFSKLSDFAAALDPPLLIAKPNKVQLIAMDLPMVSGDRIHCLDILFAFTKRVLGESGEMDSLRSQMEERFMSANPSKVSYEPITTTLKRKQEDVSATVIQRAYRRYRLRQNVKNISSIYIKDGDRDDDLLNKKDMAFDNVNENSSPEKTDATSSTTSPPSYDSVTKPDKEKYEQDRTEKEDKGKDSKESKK
T3 sequence (P35499 whole entry): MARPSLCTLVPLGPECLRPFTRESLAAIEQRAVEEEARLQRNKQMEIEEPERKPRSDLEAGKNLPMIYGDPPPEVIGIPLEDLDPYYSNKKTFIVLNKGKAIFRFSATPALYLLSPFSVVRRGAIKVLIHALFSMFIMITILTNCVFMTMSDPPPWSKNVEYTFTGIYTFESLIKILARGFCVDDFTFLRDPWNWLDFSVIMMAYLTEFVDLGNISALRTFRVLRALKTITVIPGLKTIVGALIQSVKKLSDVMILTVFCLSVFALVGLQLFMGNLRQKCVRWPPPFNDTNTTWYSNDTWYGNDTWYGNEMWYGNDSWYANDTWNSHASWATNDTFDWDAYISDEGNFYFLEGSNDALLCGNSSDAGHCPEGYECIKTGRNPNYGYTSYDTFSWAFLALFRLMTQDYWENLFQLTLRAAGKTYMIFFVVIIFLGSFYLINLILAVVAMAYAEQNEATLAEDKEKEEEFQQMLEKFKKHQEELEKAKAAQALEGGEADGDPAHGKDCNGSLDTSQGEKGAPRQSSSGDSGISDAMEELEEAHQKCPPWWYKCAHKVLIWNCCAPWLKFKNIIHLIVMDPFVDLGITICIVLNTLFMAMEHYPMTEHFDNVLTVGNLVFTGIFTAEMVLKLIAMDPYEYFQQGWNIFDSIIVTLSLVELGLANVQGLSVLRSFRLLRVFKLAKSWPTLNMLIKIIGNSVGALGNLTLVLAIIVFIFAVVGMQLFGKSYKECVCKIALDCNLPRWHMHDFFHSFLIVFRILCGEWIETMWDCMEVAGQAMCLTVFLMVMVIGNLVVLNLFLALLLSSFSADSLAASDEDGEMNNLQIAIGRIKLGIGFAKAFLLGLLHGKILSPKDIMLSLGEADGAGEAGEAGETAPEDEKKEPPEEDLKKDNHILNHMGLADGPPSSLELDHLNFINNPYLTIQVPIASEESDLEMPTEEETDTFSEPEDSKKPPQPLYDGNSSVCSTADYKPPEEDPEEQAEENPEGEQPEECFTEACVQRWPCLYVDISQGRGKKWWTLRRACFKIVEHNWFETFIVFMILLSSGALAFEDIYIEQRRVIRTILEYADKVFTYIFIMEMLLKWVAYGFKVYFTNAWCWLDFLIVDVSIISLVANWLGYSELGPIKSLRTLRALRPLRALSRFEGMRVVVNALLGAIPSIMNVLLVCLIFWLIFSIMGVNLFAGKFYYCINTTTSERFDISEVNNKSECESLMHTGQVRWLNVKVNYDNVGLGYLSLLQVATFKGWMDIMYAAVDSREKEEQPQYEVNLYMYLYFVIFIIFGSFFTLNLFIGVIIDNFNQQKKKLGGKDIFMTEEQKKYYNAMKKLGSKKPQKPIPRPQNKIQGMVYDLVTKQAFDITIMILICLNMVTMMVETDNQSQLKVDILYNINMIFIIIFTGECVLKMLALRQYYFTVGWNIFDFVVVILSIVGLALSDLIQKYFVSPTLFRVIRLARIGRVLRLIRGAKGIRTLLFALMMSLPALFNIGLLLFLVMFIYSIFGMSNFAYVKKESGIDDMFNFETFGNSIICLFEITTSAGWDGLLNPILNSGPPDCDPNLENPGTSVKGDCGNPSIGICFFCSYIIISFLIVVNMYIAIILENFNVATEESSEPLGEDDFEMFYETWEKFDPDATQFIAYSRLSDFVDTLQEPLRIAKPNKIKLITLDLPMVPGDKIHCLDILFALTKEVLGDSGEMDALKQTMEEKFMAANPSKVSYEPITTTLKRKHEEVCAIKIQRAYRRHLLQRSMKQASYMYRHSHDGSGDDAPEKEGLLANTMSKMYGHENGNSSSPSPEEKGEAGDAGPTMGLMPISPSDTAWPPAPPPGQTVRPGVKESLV

For `CCCC[C@@H]1NC(=O)[C@H](Cc2c[nH]c3ccccc23)NC(=O)[C@H](CCCCN)NC(=O)[C@H](CCC(N)=O)NC(=O)[C@@H](NC(=O)[C@H](Cc2ccc(O)cc2)NC(=O)[C@@H](N)CC#N)CSSC[C@@H]2NC(=O)[C@@H]3CSSC[C@@H](C(=O)N[C@@H](CCCNC(=N)N)C(=O)N[C@@H](CCCCN)C(=O)N[C@@H](CCC(=O)O)C(=O)N[C@H](C(N)=O)[C@@H](C)CC)NC(=O)[C@H](Cc4c[nH]c5ccccc45)NC(=O)[C@H](CC(C)C)NC(=O)[C@H](CCCCN)NC(=O)[C@H](CSSC[C@H](NC(=O)[C@H]([C@@H](C)O)NC(=O)[C@H](Cc4c[nH]c5ccccc45)NC1=O)C(=O)N[C@@H](CC(=O)O)C(=O)N[C@@H](CO)C(=O)N[C@@H](CCCCN)C(=O)N[C@@H](CCCNC(=N)N)C(=O)N[C@@H](C)C(=O)N3)NC(=O)[C@H](CCCNC(=N)N)NC(=O)[C@H](CC(C)C)NC(=O)CNC(=O)[C@H](Cc1cn(CCCOCCOCCOCCOCCOCCOCCOCCOCCOCCOCCN)nn1)NC2=O`, at rNav1.7, the rNav1.7/hNav1.7 came out at 0.46. On mNav1.7, the mNav1.7/hNav1.7 is 2.23.
The corresponding values for `CCCC[C@@H]1NC(=O)[C@H](Cc2c[nH]c3ccccc23)NC(=O)[C@H](CCCCN)NC(=O)[C@H](CCC(N)=O)NC(=O)[C@@H](NC(=O)[C@H](Cc2ccc(O)cc2)NC(=O)[C@@H](N)Cc2cn(CCOCCOCCOCCOCCOCCOCCOCCOCCOCCOCCN)nn2)CSSC[C@@H]2NC(=O)[C@@H]3CSSC[C@@H](C(=O)N[C@@H](CCCNC(=N)N)C(=O)N[C@@H](CCCCN)C(=O)N[C@H](C(=O)N[C@H](C(N)=O)[C@@H](C)CC)[C@@H](C)CC)NC(=O)[C@H](Cc4c[nH]c5ccccc45)NC(=O)[C@H](CC(C)C)NC(=O)[C@H](CCCCN)NC(=O)[C@H](CSSC[C@H](NC(=O)[C@H]([C@@H](C)O)NC(=O)[C@H](Cc4c[nH]c5ccccc45)NC1=O)C(=O)N[C@@H](CC(=O)O)C(=O)N[C@@H](CO)C(=O)N[C@@H](CCCCN)C(=O)N[C@@H](CCCNC(=N)N)C(=O)N[C@@H](C)C(=O)N3)NC(=O)[C@H](CCCNC(=N)N)NC(=O)[C@H](CC(C)C)NC(=O)CNC(=O)[C@H](CCC(=O)O)NC2=O` [Atz(NPEG9)-[Nle6]JzTx-V(1-29)] are 0.22 and 1.65.
For the compound `C#CC[C@@H]1NC(=O)[C@H](CC(=O)O)NC(=O)[C@@H]2CSSC[C@@H]3NC(=O)[C@H](CCCNC(=N)N)NC(=O)[C@H](CC(C)C)NC(=O)CNC(=O)[C@H](CCC(=O)O)NC(=O)[C@H](CSSC[C@H](NC(=O)[C@H](Cc4ccc(O)cc4)NC(=O)[C@@H](N)CC#N)C(=O)N[C@@H](CCC(N)=O)C(=O)N[C@@H](CCCCN)C(=O)N[C@@H](Cc4c[nH]c5ccccc45)C(=O)N[C@@H](CCCC)C(=O)N[C@@H](Cc4c[nH]c5ccccc45)C(=O)N[C@@H]([C@@H](C)O)C(=O)N2)NC(=O)[C@H](CSSC[C@@H](C(=O)N[C@@H](CCCNC(=N)N)C(=O)N[C@@H](CCCCN)C(=O)N[C@@H](CCC(=O)O)C(=O)N[C@H](C(N)=O)[C@@H](C)CC)NC(=O)[C@H](Cc2c[nH]c4ccccc24)NC(=O)[C@H](CC(C)C)NC(=O)[C@H](CCCCN)NC3=O)NC(=O)[C@H](C)NC(=O)[C@H](CCCNC(=N)N)NC(=O)[C@H](CCCCN)NC1=O` [CyA-[Nle6; Pra11; Glu28]JzTx-V(1-29)], on rNav1.7 (PatchXpress, tonic block, rat Nav1.7, read-out: PX rNav1.7 Tonic IC50), the concentration for half-maximal inhibition (IC50) was found to be 2.24 nM. For the same compound, the rNav1.7/hNav1.7 on rNav1.7 came to 11.58. In addition, on mNav1.7, the IC50 was found to be 4.04 nM and the mNav1.7/hNav1.7 is 20.87.
For the compound `CCCC[C@@H]1NC(=O)[C@H](Cc2c[nH]c3ccccc23)NC(=O)[C@H](CCCCN)NC(=O)[C@H](CCC(N)=O)NC(=O)[C@@H](NC(=O)[C@H](Cc2ccc(O)cc2)NC(=O)[C@@H](N)CC#N)CSSC[C@@H]2NC(=O)[C@@H]3CSSC[C@@H](C(=O)N[C@@H](CCCNC(=N)N)C(=O)N[C@@H](CCCCN)C(=O)N[C@H](C(=O)N[C@H](C(N)=O)[C@@H](C)CC)[C@@H](C)CC)NC(=O)[C@H](Cc4c[nH]c5ccccc45)NC(=O)[C@H](CC(C)C)NC(=O)[C@H](CCCCN)NC(=O)[C@H](CSSC[C@H](NC(=O)[C@H]([C@@H](C)O)NC(=O)[C@H](Cc4c[nH]c5ccccc45)NC1=O)C(=O)N[C@@H](CC(=O)O)C(=O)N[C@@H](CO)C(=O)N[C@@H](CCCCN)C(=O)N[C@@H](CCCNC(=N)N)C(=O)N[C@@H](C)C(=O)N3)NC(=O)[C@H](CCCNC(=N)N)NC(=O)[C@H](CC(C)C)NC(=O)CNC(=O)[C@H](CCC(=O)O)NC2=O` [CyA-[Nle6]JzTx-V(1-29)], the IC50 at hNav1.7 [1] (setting [7]) was 0.31 nM; on mNav1.7, 0.957 nM. The mNav1.7/hNav1.7 on mNav1.7 stood at 3.09.
As to `CCCC[C@@H]1NC(=O)[C@H](Cc2c[nH]c3ccccc23)NC(=O)[C@H](CCCCN)NC(=O)[C@H](CCC(N)=O)NC(=O)[C@@H](NC(=O)[C@H](Cc2ccc(O)cc2)NC(=O)[C@H](N)CC(C)C)CSSC[C@@H]2NC(=O)[C@@H]3CSSC[C@@H](C(=O)N[C@@H](CCCNC(=N)N)C(=O)N[C@@H](CCCCN)C(=O)N[C@H](C(=O)N[C@H](C(N)=O)[C@@H](C)CC)[C@@H](C)CC)NC(=O)[C@H](Cc4c[nH]c5ccccc45)NC(=O)[C@H](CC(C)C)NC(=O)[C@H](CCCCN)NC(=O)[C@H](CSSC[C@H](NC(=O)[C@H]([C@@H](C)O)NC(=O)[C@H](Cc4c[nH]c5ccccc45)NC1=O)C(=O)N[C@@H](CC(=O)O)C(=O)N[C@@H](CO)C(=O)N[C@@H](CCCCN)C(=O)N[C@@H](CCCNC(=N)N)C(=O)N[C@@H](C)C(=O)N3)NC(=O)[C@H](CCCNC(=N)N)NC(=O)[C@H](CC(C)C)NC(=O)CNC(=O)[C@H](CCC(=O)O)NC2=O` [D-Leu-[Nle6]JzTx-V(1-29)], the concentration for half-maximal inhibition (IC50) at hNav1.7 [1] (setting [7]) is 0.15 nM. Also, on mNav1.7, the 50% inhibitory concentration (IC50) worked out at 12.6 nM and the mNav1.7/hNav1.7 was 84.00.
The corresponding values for `CCCC[C@@H]1NC(=O)[C@H](Cc2c[nH]c3ccccc23)NC(=O)[C@H](CCCCN)NC(=O)[C@H](CCC(N)=O)NC(=O)[C@@H](NC(=O)[C@H](Cc2ccc(O)cc2)NC(=O)[C@@H](N)Cc2c[nH]c3ccccc23)CSSC[C@@H]2NC(=O)[C@@H]3CSSC[C@@H](C(=O)N[C@@H](CCCNC(=N)N)C(=O)N[C@@H](CCCCN)C(=O)N[C@H](C(=O)N[C@H](C(N)=O)[C@@H](C)CC)[C@@H](C)CC)NC(=O)[C@H](Cc4c[nH]c5ccccc45)NC(=O)[C@H](CC(C)C)NC(=O)[C@H](CCCCN)NC(=O)[C@H](CSSC[C@H](NC(=O)[C@H]([C@@H](C)O)NC(=O)[C@H](Cc4c[nH]c5ccccc45)NC1=O)C(=O)N[C@@H](CC(=O)O)C(=O)N[C@@H](CO)C(=O)N[C@@H](CCCCN)C(=O)N[C@@H](CCCNC(=N)N)C(=O)N[C@@H](C)C(=O)N3)NC(=O)[C@H](CCCNC(=N)N)NC(=O)[C@H](CC(C)C)NC(=O)CNC(=O)[C@H](CCC(=O)O)NC2=O` [Trp-[Nle6]JzTx-V(1-29)] are 0.33 nM, 1.34 nM and 4.07.
Turning to `CCCC[C@@H]1NC(=O)[C@H](Cc2c[nH]c3ccccc23)NC(=O)[C@H](CCCCN)NC(=O)[C@H](CCC(N)=O)NC(=O)[C@@H](NC(=O)[C@H](Cc2ccc(O)cc2)NC(=O)[C@@H](N)Cc2cn(CCCOCCOCCOCCOCCOCCOCCOCCOCCOCCOCCN)nn2)CSSC[C@@H]2NC(=O)[C@@H]3CSSC[C@@H](C(=O)N[C@@H](CCCNC(=N)N)C(=O)N[C@@H](CCCCN)C(=O)N[C@H](C(=O)N[C@H](C(N)=O)[C@@H](C)CC)[C@@H](C)CC)NC(=O)[C@H](Cc4c[nH]c5ccccc45)NC(=O)[C@H](CC(C)C)NC(=O)[C@H](CCCCN)NC(=O)[C@H](CSSC[C@H](NC(=O)[C@H]([C@@H](C)O)NC(=O)[C@H](Cc4c[nH]c5ccccc45)NC1=O)C(=O)N[C@@H](CC(=O)O)C(=O)N[C@@H](CO)C(=O)N[C@@H](CCCCN)C(=O)N[C@@H](CCCNC(=N)N)C(=O)N[C@@H](C)C(=O)N3)NC(=O)[C@H](CCCNC(=N)N)NC(=O)[C@H](CC(C)C)NC(=O)CNC(=O)[C@H](CCC(=O)O)NC2=O` [compound 247], the half-maximal inhibitory concentration (IC50) on hNav1.7 [2] came to 0.07 µM; at hNav1.5 [3], 4.3 µM; at hNav1.4 [4] (IonWorks Quattro, read-out: IC50 (μM) Nav1.4), 0.15 µM; on hNav1.3, 0.13 µM; at hNav1.7 [1], 6 nM; at hNav1.5 [5] (read-out: PX hNav1.5 Tonic IC50) it was 3770 nM. The IC50 on hNav1.4 [6] (read-out: PX hNav1.4 Tonic IC50) turned out to be 8 nM. Also, the Nav1.4/Nav1.7 is 2 at hNav1.4 [4] (ratio of IonWorks Quattro IC50 values) and 1 at hNav1.4 [6] (setting [8]). Further, the Nav1.5/Nav1.7 on hNav1.5 [5] (setting [8]) was determined as 629.

For the origin of these results see patent US10344060B2 (priority 2013, dated 2019).
